Entries after “also recorded” stand apart in the source; their conditions may differ.
Columns and labels:
[1] = system: IGFBP-2 mRNA; test: transcriptional profiling of amygdala of drug-treated rats; format: in vivo; settings: rat amygdala
Text: In the short-term 3 day treatment, it is possible that the drugs might exert their antidepressant effects through decreasing IGFBP-2 expression, which would increase bioavailability of IGF-I. The long-term treatment is of equivalent magnitude but in the opposite direction. This may represent a compensatory mechanism in response to the short-term drug effects.

[2] = system: Balb/C mice; test: mouse elevated zero maze (EZM); format: in vivo
Description: (§1) To assess the anxiolytic activity of NBI-31772, mice receiving intraventricular administration of NBI-31772 were tested in an elevated zero maze (EZM) or in a four-plate appratus (FPT). NBI-31722 (availabe from Calbiochem/EMD Biosciences, Inc. of San Diego, Calif.) was administered in a volume of 2 μl. Balb/C mice were used for the elevated zero maze and Swiss-Webster mice were used for the four-plate test. One-way analysis of variance (ANOVA) was performed on behavioral data to determine effects of test compound treatments, followed by Least Significant Difference Tests for a post hoc analysis. Data is presented as the mean±SEM.
These effects are similar to those seen with reference anxiolytic compounds chlordiazepoxide and diazepam (Ring et al., Psychopharmacology (Berl.), 2006, 185(2):218-225) and are indicative of anxiolytic-like activity of NBI-31772 in the EZM.

[3] = system: Swiss-Webster mice; test: mouse four-plate test (FPT), punished crossings; format: in vivo
Description: as §1
The four-plate apparatus consists of a Plexiglas chamber (18×25×16 cm) with a floor consisting of four rectangular metal plates (8×11 cm), which are separated from one another by a 4 mm gap. All four plates are wired to a shock generator (0.8 mA, 0.5 second; Med Associates Inc. of St. Albans, Vt.). In each experiment, mice are placed into the chamber and given an 18-second habituation period followed by a 1-minute test. During the test, the animal's innate motivation to explore the novel environment is suppressed by the delivery of a mild foot shock every time the animal moves from one plate to another (referred to as a ‘punished crossing’). Following each punished crossing, there is a 3-second time out where the mouse may cross the plates without receiving another shock. An experimenter blind to the dosing conditions administers shocks, and a computer records the total number of punished crossings an animal makes during the testing period. Clinically effective classes of anxiolytic compounds such as benzodiazepines, selective serotonin reuptake inhibitors, or 5-HT1A […] produce increases in punished crossings, which is indicative of anxiolytic-like activity.
In each study, mice were given a single icv injection or two icv injections of test compounds or vehicle 20 minutes prior to the test session, and the number of punished crosses during the 1-minute test was recorded. For experiments where 2 icv injections were given, an animal received an injection in both the left and right ventricles, with the second injection given immediately after the first injection. A 26-gauge Hamilton syringe with 3-mm needle was used for injections and the injection site was visualized by locating the middle of the invisible line that runs diagonally from the left eye to the right ear. Mice were housed individually during the interval between injections and behavioral testing.
The mouse four-plate test was performed and statistical analyses conducted as described in Example 9.
In these studies, NBI-31772 and JB1, an IGF-1R antagonist, were administered centrally (icv) with the two injections occurring sequentially. Compounds were administered 20 minutes prior to testing and the number of punished crosses during the 1-minute test was recorded.

[4] = target: T1, IGFBP-2 (Homo sapiens, UniProt P18065); settings: cited from earlier work
T1 sequence (P18065 with tags, fused parts or gaps DUP19-21/R317C): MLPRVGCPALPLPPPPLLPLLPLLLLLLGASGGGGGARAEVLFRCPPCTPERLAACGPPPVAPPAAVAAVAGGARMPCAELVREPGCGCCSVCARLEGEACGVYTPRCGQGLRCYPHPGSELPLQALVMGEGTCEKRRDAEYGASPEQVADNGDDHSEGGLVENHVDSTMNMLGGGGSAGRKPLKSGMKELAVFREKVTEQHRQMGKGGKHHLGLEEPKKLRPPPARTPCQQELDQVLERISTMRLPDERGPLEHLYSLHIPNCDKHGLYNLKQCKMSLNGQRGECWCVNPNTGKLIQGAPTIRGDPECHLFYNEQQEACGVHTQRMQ

[5] = system: IGFBP-1 to IGFBP-6; settings: cited from earlier work
[6] = system: fibroblast; settings: IGF-I released from binding protein complex; cited from earlier work
[7] = system: Swiss-Webster mice; test: mouse tail suspension test (TST); format: in vivo; settings: for immobility: 20 minutes prior to testing
Description: To assess the on potential antidepressant effects of NBI-31772, Swiss-Webster mice were analyzed using the Tail Suspension Test (TST). In this test, mice were suspended upside down by taping their tails with adhesive laboratory tape (VWR International of West Chester, Pa.) to a flat metal bar connected to a strain gauge within a sound-attenuating chamber (Med Associates Inc. of St. Albans, Vt.). The bar is positioned such that a mouse is not able to grasp the top or the sides of the chamber. The total time spent immobile during a 6-minute test session is automatically recorded. Compounds that decrease the total immobility time compared to control animals are predicted to have antidepressant-like effects. In each study, mice were given a single icv injection of test compound or vehicle 20 minute prior to the test session. Mice were housed individually during the interval between injection and behavioral testing.
One-way analysis of variance (ANOVA) was performed on behavioral data to determine effects of NBI-31772 treatment, followed by Least Significant Difference Tests for a post hoc analysis. The data is presented as the mean±SEM. […] This decrease in immobility indicates antidepressant-like effects similar to that seen with IGF-1.
The mouse tail suspension test was performed and statistical analyses conducted as described in Example 11.

[8] = system: IGF-I mRNA; test: microarray profiling of antidepressant-treated C6 glioma cell lines; format: cell-based; settings: quiescent C6 glioma cell lines, 24 hours
Text: Glial cell cultures were used because they lack endogenous serotonin and norepinephrine transporter mechanisms. Thus, any transcriptional effects caused by the antidepressant drugs are due to actions beyond the level of the serotonin and norepinephrine receptors and respective transporters. […] Antidepressant drugs may therefore be acting on the glia, which produces the neurotrophic factor IGF-I, which acts in a juxtacrine manner to stimulate neurogenesis.

[9] = rats, subcutaneous deposition; cited from earlier work
[10] = cited from earlier work
[11] = system: adult rat dentate gyrus; test: BrdU-positive cell proliferation in adult rat dentate gyrus after chronic icv infusion; format: in vivo; settings: 10 days icv via minipump, sacrifice Day 11
Description: Previous investigators have shown that IGF-1 administered either intracerebroventricular (icv) or systemically increases proliferation and survival, and (Aberg, et al, 2000; Lichtenwalner et al, 2000). Furthermore, systemic IGF promotes neuronal differentiation. The present study confirms and extends these previous findings. Rats were given IGF-1 for 10 days via a cannula attached to a semiosmotic minipump. On Day 11, animals were sacrificed and quantitative analysis was performed to determine the number of BrdU-positive cells as a measure of cell proliferation. A 66% increase in BrdU-positive cells per hippocampus compared to saline-infused animals was observed (FIG. 10).

In the case of `O=C1CC2(CCCC2)CC(=O)N1CCCCN1CCN(c2ncccn2)CC1` [Buspirone], the “expression of IGFBP-2 mRNA compared to vehicle alone” value ([1]; 3 day treatment) is reported as “decreased expression” and the “expression of IGFBP-2 mRNA compared to vehicle alone” value ([1]; 14 day treatment) is reported as “increased expression”.

With `C[C@]12CC[C@H]3[C@@H](CC[C@@H]4C[C@@](O)(C(F)(F)F)CC[C@@H]43)[C@@H]1CC[C@@H]2C(=O)CO` [GMA-839] the “expression of IGFBP-2 mRNA compared to vehicle alone” value ([1]; 3 day treatment) was “decreased expression” and the “expression of IGFBP-2 mRNA compared to vehicle alone” value ([1]; 14 day treatment) was “increased expression”.

With `O=C(O)c1cc2cc(O)c(O)cc2c(C(=O)c2ccc(O)c(O)c2)n1` [NBI-31772] the “increase in % time in the open arms compared to the vehicle group” value (“increase in % time in the open arms” below) ([2]; 0.3 μg icv) was 100%, the “increase in % time in the open arms” value ([2]; 1 μg icv) was 100% and the “increase in % time in the open arms” value ([2]; 3 μg icv) was 81%. The “increase in % time in the open arms” value ([2]; 10 μg icv) was 119%, the “% time spent in the open arms of the maze” value ([2]; 0.1-10 μg, icv, 20 minutes prior to testing) was “dose-dependent increase” and the “increase in punished crossings” value ([3]; 10 μg icv) was 22%. The “increase in punished crossings” value ([3]; 30 μg icv) was 32%, the “increase in punished crossings compared to vehicle group” value ([3]; 30 μg icv, two sequential icv injections study) was 24% and the “seizures, percentage of animals” value ([3]; 56 μg icv) was 20%. The “seizures, percentage of animals” value ([3]; 100 μg icv) was 40%, the punished crossings ([3]; 3.0-30 μg, icv) was “dose-dependent increase” and the punished crossings ([3]; higher doses 56 and 100 μg icv, not used for analysis) was “an increase in punished crossings was seen”. The “activity toward IGFBP-2 compared to the other five IGFBPs” value [4] was “highest activity”, the “dissociation of IGF-I from its binding protein complex” value [5] was “dissociates” and the “inhibition of 125I IGF-I binding / interaction of IGF-I with IGFBP-1 to 6” value [5] was “inhibits; also recorded: dose-dependent inhibition”. For the same compound, the “biological activity of the released IGF-I” value [6] was “biologically active”, the decrease in immobility ([7]; 3 μg icv) was 32% and the decrease in immobility ([7]; 10 μg icv) was 35%. The decrease in immobility ([7]; 30 μg icv) was 38% and the immobility ([7]; 0.3-30 μg icv) was “dose-dependent decrease”.

With `Fc1ccc([C@@H]2CCNC[C@H]2COc2ccc3c(c2)OCO3)cc1` [Paroxetine] the “expression of IGFBP-2 mRNA compared to vehicle alone” value ([1]; 3 day treatment) was “decreased expression” and the “expression of IGFBP-2 mRNA compared to vehicle alone” value ([1]; 14 day treatment) was “increased expression”.

In the case of `CNCCCN1c2ccccc2CCc2ccccc21` [desipramine], the “expression of IGF-I mRNA” value [8] is reported as “increased expression”.

With `CNCCC(Oc1ccc(C(F)(F)F)cc1)c1ccccc1` (stereo not shown) [fluoxetine] the “expression of IGF-I mRNA” value [8] was “increased expression”.

In the case of `COc1ccc(C(CN(C)C)C2(O)CCCCC2)cc1` (stereo not shown) [venlafaxine], the “expression of IGF-I mRNA” value [8] is reported as “increased expression”.

For “IGF-1: recombinant human IGF-1, insulin-like growth factor, available from Bachem Biosciences”, the “concentrations in the CNS relative to those in the serum” value [9] is listed as “about 0.5%”, the “plasma concentrations at which uptake into CSF reached a plateau” value [9] is listed as “above 150 ng/ml” and the “increase in punished crossings from vehicle” value ([3]; 0.01 μg dose, central administration) is listed as 32%. For the same compound, the “effects in the four-plate test (FIG. 13)” value ([3]; 0.1 μg) was “anxiolytic-like effects”, the punished crossings ([3]; 0.03-1.0 μg, central administration 20 minutes prior to testing) was “significant overall effect” and the “inhibition of 125I IGF-I binding / interaction of IGF-I with IGFBP-1 to 6” value [5] was “dose-dependent inhibition”. The “decrease in immobility from vehicle” value ([7]; 10 μg dose) was 33%, the immobility ([7]; 1-10 μg) was “dose-dependent decrease” and the serum half-life [10] was 10 min. The “increase in BrdU-positive cells per hippocampus compared to saline-infused animals” value [11] was 66%.

In the case of “complex of IGF-I and IGFBP-3: dimeric complex of IGF-I and IGFBP-3 in serum”, the serum half-life [10] is listed as 30 min.
